What was measured:
[1] = tested on: THP-1; experiment: Selectivity index, ratio of IC50 for human THP1 cells to IC50 for mouse S17 cells; format: functional
[2] = Cytotoxicity against mouse S17 cells assessed as reduction in cell viability after 72 hrs by MTT colorimetric assay; format: cell-based; details: S17, 72 h
[3] = tested on: THP-1; experiment: Cytotoxicity against human THP1 cells assessed as reduction in cell viability after 72 hrs by MTT colorimetric assay; format: functional, cell-based; details: THP-1, 72 h
[4] = tested on: EL4; experiment: Cytotoxicity against mouse EL4 cells assessed as reduction in cell viability after 72 hrs by MTT colorimetric assay; format: functional, cell-based; details: EL4, 72 h
[5] = Cytotoxicity against human U937 cells assessed as reduction in cell viability after 72 hrs by MTT colorimetric assay; format: functional, cell-based; details: U-937, 72 h
[6] = tested on: HepG2; experiment: Cytotoxicity against human HepG2 cells assessed as reduction in cell viability after 72 hrs by MTT colorimetric assay; format: functional, cell-based; details: HepG2, 72 h
[7] = tested on: N9; experiment: Selectivity index, ratio of IC50 for human U937 cells to IC50 for mouse N9 cells; format: functional
[8] = tested on: N9; experiment: Selectivity index, ratio of IC50 for human MDA-MB-468 cells to IC50 for mouse N9 cells; format: functional
[9] = tested on: HepG2; experiment: Selectivity index, ratio of IC50 for human HepG2 cells to IC50 for mouse S17 cells; format: functional
[10] = tested on: N9; experiment: Selectivity index, ratio of IC50 for mouse RAW264.7 cells to IC50 for mouse N9 cells; format: functional
[11] = tested on: HepG2; experiment: Selectivity index, ratio of IC50 for human HepG2 cells to IC50 for mouse N9 cells; format: functional
[12] = Selectivity index, ratio of IC50 for human MDA-MB-468 cells to IC50 for mouse S17 cells; format: functional
[13] = tested on: RAW264.7; experiment: Cytotoxicity against mouse RAW264.7 cells assessed as reduction in cell viability after 72 hrs by MTT colorimetric assay; format: functional, cell-based; details: RAW264.7, 72 h
[14] = tested on: N9; experiment: Selectivity index, ratio of IC50 for human THP1 cells to IC50 for mouse N9 cells; format: functional
[15] = tested on: EL4; experiment: Selectivity index, ratio of IC50 for mouse EL4 cells to IC50 for mouse N9 cells; format: functional
[16] = tested on: MDA-MB-468; experiment: Cytotoxicity against human MDA-MB-468 cells assessed as reduction in cell viability after 72 hrs by MTT colorimetric assay; format: functional, cell-based; details: MDA-MB-468, 72 h

| Structure (SMILES) | Ratio IC50 [1] | IC50 [2] | IC50 [3] | IC50 [4] | IC50 [5] | IC50 [6] | Ratio IC50 [7] | Ratio IC50 [8] | Ratio IC50 [9] | Ratio IC50 [10] | Ratio IC50 [11] | Ratio IC50 [12] | IC50 [13] | Ratio IC50 [14] | Ratio IC50 [15] | IC50 [16] |
| --- | --- | --- | --- | --- | --- | --- | --- | --- | --- | --- | --- | --- | --- | --- | --- | --- |
| C/C(=N/O)C(c1c[nH]c2ccccc12)c1c[nH]c2ccccc12 | 0.6 | 35.8 µM | 57.6 µM | 39 µM | 59.3 µM | – | – | – | – | – | – | – | – | – | – | – |
| C/C(=N\O)C(c1c[nH]c2ccccc12)c1c[nH]c2ccccc12 | 0.62 | 26.1 µM | 30.7 µM | 23.9 µM | 42.5 µM | – | – | – | – | – | – | – | – | – | – | – |
| O/N=C(/c1ccc(Br)cc1)C(c1c[nH]c2ccccc12)c1c[nH]c2ccccc12 | 10.04 | 16.3 µM | 1.62 µM | 1.65 µM | 1.64 µM | 16.6 µM | 14.02 | 1.04 | 0.98 | 0.96 | 1.38 | 0.73 | 23.9 µM | 14.2 | 13.94 | 22.1 µM |
| O/N=C(/c1ccc(F)cc1)C(c1c[nH]c2ccccc12)c1c[nH]c2ccccc12 | 0.89 | 24.9 µM | 23 µM | 16.9 µM | 28 µM | – | – | – | – | – | – | – | – | – | – | – |
| Cn1cc(C(/C(=N\O)c2ccc(Br)cc2)c2cn(C)c3ccccc23)c2ccccc21 | 0.41 | 51.4 µM | 124 µM | 106 µM | 97 µM | 35.7 µM | 0.2 | 0.31 | 1.44 | 0.47 | 0.56 | 0.81 | 42.2 µM | 0.16 | 0.19 | 63.7 µM |
| COc1cc([C@@H]2c3cc4c(cc3[C@@H](O[C@@H]3O[C@@H]5CO[C@@H](C)O[C@H]5[C@H](O)[C@H]3O)[C@H]3COC(=O)[C@H]23)OCO4)cc(OC)c1O [ETOPOSIDE] | 8.55 | 10.4 µM | 1.82 µM | 4.9 µM | 1.1 µM | 1.4 µM | – | 0.88 | 8.97 | – | 1.71 | – | 0.82 µM | – | 0.8 | 6.69 µM |
| O/N=C(/c1ccccc1)C(c1c[nH]c2ccccc12)c1c[nH]c2ccccc12 | – | 26.3 µM | 18.1 µM | 11.9 µM | 34.1 µM | 28 µM | 0.86 | 2.72 | 0.94 | 2.4 | 1.05 | 2.45 | 12.2 µM | 1.61 | 2.45 | 10.7 µM |
